According to PubChem BioAssay (NCI):
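Five compound concentrations were applied to cells in 96-well plates for 48 hours; endpoints were derived by simple linear interpolation of the resulting dose-response curve. At the GI50, growth is halved. TGI denotes the concentration required for complete inhibition of growth.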

Legend:
Test in all cases: NCI tumour cell line growth inhibition, 48 h
786-0 renal = system: 786-0 renal
A498 renal = system: A498 renal
A549 NSCLC = system: A549 NSCLC
ACHN renal = system: ACHN renal
BT-549 breast = system: BT-549 breast
CAKI-1 renal = system: CAKI-1 renal
CCRF-CEM leukemia = system: CCRF-CEM leukemia
COLO 205 colon = system: COLO 205 colon
DU-145 prostate = system: DU-145 prostate
EKVX NSCLC = system: EKVX NSCLC
HCC-2998 colon = system: HCC-2998 colon
HCT-116 colon = system: HCT-116 colon
HCT-15 colon = system: HCT-15 colon
HOP-62 NSCLC = system: HOP-62 NSCLC
HOP-92 NSCLC = system: HOP-92 NSCLC
HS 578T breast = system: HS 578T breast
HT29 colon = system: HT29 colon
IGROV1 ovarian = system: IGROV1 ovarian
KM12 colon = system: KM12 colon
LOX IMVI melanoma = system: LOX IMVI melanoma
M14 melanoma = system: M14 melanoma
MALME-3M melanoma = system: MALME-3M melanoma
MCF7 breast = system: MCF7 breast
MDA-MB-231 breast = system: MDA-MB-231 breast
MDA-MB-435 = system: MDA-MB-435
MOLT-4 leukemia = system: MOLT-4 leukemia
NCI-H226 lung = system: NCI-H226 lung
NCI-H23 lung = system: NCI-H23 lung
NCI-H522 lung = system: NCI-H522 lung
NCI/ADR-RES ovarian = system: NCI/ADR-RES ovarian
OVCAR-3 ovarian = system: OVCAR-3 ovarian
OVCAR-4 ovarian = system: OVCAR-4 ovarian
OVCAR-5 ovarian = system: OVCAR-5 ovarian
OVCAR-8 ovarian = system: OVCAR-8 ovarian
PC-3 prostate = system: PC-3 prostate
RPMI-8226 leukemia = system: RPMI-8226 leukemia
RXF 393 renal = system: RXF 393 renal
SF-268 CNS = system: SF-268 CNS
SF-295 CNS = system: SF-295 CNS
SF-539 CNS = system: SF-539 CNS
SK-MEL-2 melanoma = system: SK-MEL-2 melanoma
SK-MEL-28 melanoma = system: SK-MEL-28 melanoma
SK-MEL-5 melanoma = system: SK-MEL-5 melanoma
SK-OV-3 ovarian = system: SK-OV-3 ovarian
SN12C renal = system: SN12C renal
SNB-19 CNS = system: SNB-19 CNS
SNB-75 CNS = system: SNB-75 CNS
SR leukemia = system: SR leukemia
SW-620 colon = system: SW-620 colon
T-47D breast = system: T-47D breast
TK-10 renal = system: TK-10 renal
U251 CNS = system: U251 CNS
UACC-257 melanoma = system: UACC-257 melanoma
UACC-62 melanoma = system: UACC-62 melanoma
HL-60(TB) leukemia = system: HL-60(TB) leukemia
NCI-H460 lung = system: NCI-H460 lung
UO-31 renal = system: UO-31 renal

COC(=O)/C(=C(/C)c1ccco1)P(=O)(OC)OC was tested, and the TGI (786-0 renal) was greater than 100 µM, the TGI (A498 renal) was greater than 100 µM and the TGI (A549 NSCLC) was greater than 100 µM. The TGI (ACHN renal) was greater than 100 µM, the TGI (BT-549 breast) was greater than 100 µM and the TGI (CAKI-1 renal) was greater than 100 µM. It also gave a TGI (CCRF-CEM leukemia) greater than 100 µM, a TGI (COLO 205 colon) greater than 100 µM and a TGI (DU-145 prostate) greater than 100 µM. For the same compound, the TGI (EKVX NSCLC) was greater than 100 µM, the TGI (HCC-2998 colon) was greater than 100 µM and the TGI (HCT-116 colon) was greater than 100 µM. For the same compound, the TGI (HCT-15 colon) was greater than 100 µM, the TGI (HOP-62 NSCLC) was greater than 100 µM and the TGI (HOP-92 NSCLC) was greater than 100 µM. For the same compound, the TGI (HS 578T breast) was greater than 100 µM, the TGI (HT29 colon) was greater than 100 µM and the TGI (IGROV1 ovarian) was greater than 100 µM. It also gave a TGI (KM12 colon) greater than 100 µM, a TGI (LOX IMVI melanoma) greater than 100 µM and a TGI (M14 melanoma) greater than 100 µM. For the same compound, the TGI (MALME-3M melanoma) was greater than 100 µM, the TGI (MCF7 breast) was greater than 100 µM and the TGI (MDA-MB-231 breast) was greater than 100 µM. For the same compound, the TGI (MDA-MB-435) was greater than 100 µM, the TGI (MOLT-4 leukemia) was greater than 100 µM and the TGI (NCI-H226 lung) was greater than 100 µM. The TGI (NCI-H23 lung) was greater than 100 µM, the TGI (NCI-H522 lung) was greater than 100 µM and the TGI (NCI/ADR-RES ovarian) was greater than 100 µM. The TGI (OVCAR-3 ovarian) was greater than 100 µM, the TGI (OVCAR-4 ovarian) was greater than 100 µM and the TGI (OVCAR-5 ovarian) was greater than 100 µM. It also gave a TGI (OVCAR-8 ovarian) greater than 100 µM, a TGI (PC-3 prostate) greater than 100 µM and a TGI (RPMI-8226 leukemia) greater than 100 µM. For the same compound, the TGI (RXF 393 renal) was greater than 100 µM, the TGI (SF-268 CNS) was greater than 100 µM and the TGI (SF-295 CNS) was greater than 100 µM. It also gave a TGI (SF-539 CNS) greater than 100 µM, a TGI (SK-MEL-2 melanoma) greater than 100 µM and a TGI (SK-MEL-28 melanoma) greater than 100 µM. It also gave a TGI (SK-MEL-5 melanoma) greater than 100 µM, a TGI (SK-OV-3 ovarian) greater than 100 µM and a TGI (SN12C renal) greater than 100 µM. The TGI (SNB-19 CNS) was greater than 100 µM, the TGI (SNB-75 CNS) was greater than 100 µM and the TGI (SR leukemia) was greater than 100 µM. For the same compound, the TGI (SW-620 colon) was greater than 100 µM, the TGI (T-47D breast) was greater than 100 µM and the TGI (TK-10 renal) was greater than 100 µM. The TGI (U251 CNS) was greater than 100 µM, the TGI (UACC-257 melanoma) was greater than 100 µM and the TGI (UACC-62 melanoma) was greater than 100 µM.
Cc1ccc(/C=C/C(=O)c2ccc(F)cc2)s1 gave a GI50 (786-0 renal) of 3.41 µM, a TGI (786-0 renal) of 14.1 µM and a GI50 (A498 renal) of 2.69 µM. For the same compound, the TGI (A498 renal) was 11.1 µM, the GI50 (A549 NSCLC) was 4.22 µM and the TGI (A549 NSCLC) was 17.6 µM. For the same compound, the GI50 (ACHN renal) was 2.26 µM, the TGI (ACHN renal) was 4.52 µM and the GI50 (BT-549 breast) was 3.02 µM. For the same compound, the TGI (BT-549 breast) was 8.49 µM, the GI50 (CAKI-1 renal) was 1.78 µM and the TGI (CAKI-1 renal) was 3.72 µM. For the same compound, the GI50 (COLO 205 colon) was 6.07 µM, the TGI (COLO 205 colon) was 19.9 µM and the GI50 (DU-145 prostate) was 3.41 µM. The TGI (DU-145 prostate) was 11.2 µM, the GI50 (EKVX NSCLC) was 5.83 µM and the TGI (EKVX NSCLC) was 20.3 µM. For the same compound, the GI50 (HCC-2998 colon) was 2.2 µM, the TGI (HCC-2998 colon) was 5.14 µM and the GI50 (HCT-116 colon) was 1.86 µM. The TGI (HCT-116 colon) was 3.37 µM, the GI50 (HCT-15 colon) was 4.14 µM and the TGI (HCT-15 colon) was 18.4 µM. For the same compound, the GI50 (HL-60(TB) leukemia) was 2.26 µM, the TGI (HL-60(TB) leukemia) was 7.22 µM and the GI50 (HOP-62 NSCLC) was 14.2 µM. It also gave a TGI (HOP-62 NSCLC) of 28 µM, a GI50 (HOP-92 NSCLC) of 1.6 µM and a TGI (HOP-92 NSCLC) of 3.4 µM. It also gave a GI50 (HS 578T breast) of 3.35 µM, a TGI (HS 578T breast) of 9.7 µM and a GI50 (HT29 colon) of 2.09 µM. For the same compound, the TGI (HT29 colon) was 4.11 µM, the GI50 (IGROV1 ovarian) was 2.17 µM and the TGI (IGROV1 ovarian) was 5.25 µM. For the same compound, the GI50 (KM12 colon) was 2.75 µM, the TGI (KM12 colon) was 7.52 µM and the GI50 (LOX IMVI melanoma) was 1.87 µM. It also gave a TGI (LOX IMVI melanoma) of 3.59 µM, a GI50 (M14 melanoma) of 7.89 µM and a TGI (M14 melanoma) of 26.7 µM. The GI50 (MALME-3M melanoma) was 1.74 µM, the TGI (MALME-3M melanoma) was 3.74 µM and the GI50 (MCF7 breast) was 3.66 µM. For the same compound, the TGI (MCF7 breast) was 16.9 µM, the GI50 (MDA-MB-231 breast) was 10.2 µM and the TGI (MDA-MB-231 breast) was 24 µM. For the same compound, the GI50 (MDA-MB-435) was 1.77 µM, the TGI (MDA-MB-435) was 3.7 µM and the GI50 (MOLT-4 leukemia) was 3.39 µM. For the same compound, the TGI (MOLT-4 leukemia) was greater than 100 µM, the GI50 (NCI-H226 lung) was 10.4 µM and the TGI (NCI-H226 lung) was 24 µM. It also gave a GI50 (NCI-H23 lung) of 3.67 µM, a TGI (NCI-H23 lung) of 16.5 µM and a GI50 (NCI-H460 lung) of 3.24 µM. For the same compound, the TGI (NCI-H460 lung) was 10.6 µM, the GI50 (NCI-H522 lung) was 1.71 µM and the TGI (NCI-H522 lung) was 3.57 µM. The GI50 (NCI/ADR-RES ovarian) was 3.68 µM, the TGI (NCI/ADR-RES ovarian) was 17.6 µM and the GI50 (OVCAR-3 ovarian) was 1.8 µM. The TGI (OVCAR-3 ovarian) was 3.29 µM, the GI50 (OVCAR-4 ovarian) was 11.7 µM and the TGI (OVCAR-4 ovarian) was 29.8 µM. For the same compound, the GI50 (OVCAR-5 ovarian) was 5.39 µM, the TGI (OVCAR-5 ovarian) was 18.6 µM and the GI50 (OVCAR-8 ovarian) was 2.74 µM. It also gave a TGI (OVCAR-8 ovarian) of 8.72 µM, a GI50 (PC-3 prostate) of 2.64 µM and a TGI (PC-3 prostate) of 7.11 µM. For the same compound, the GI50 (RXF 393 renal) was 1.82 µM, the TGI (RXF 393 renal) was 4.04 µM and the GI50 (SF-268 CNS) was 2.19 µM. It also gave a TGI (SF-268 CNS) of 4.91 µM, a GI50 (SF-295 CNS) of 5.38 µM and a TGI (SF-295 CNS) of 18.8 µM. It also gave a GI50 (SF-539 CNS) of 3.56 µM, a TGI (SF-539 CNS) of 10.2 µM and a GI50 (SK-MEL-2 melanoma) of 4.35 µM. The TGI (SK-MEL-2 melanoma) was 15.6 µM, the GI50 (SK-MEL-28 melanoma) was 2.94 µM and the TGI (SK-MEL-28 melanoma) was 7.31 µM. It also gave a GI50 (SK-MEL-5 melanoma) of 12.2 µM, a TGI (SK-MEL-5 melanoma) of 24.9 µM and a GI50 (SK-OV-3 ovarian) of 15.4 µM. The TGI (SK-OV-3 ovarian) was 37.9 µM, the GI50 (SN12C renal) was 6.47 µM and the TGI (SN12C renal) was 19.8 µM. For the same compound, the GI50 (SNB-19 CNS) was 11.3 µM, the TGI (SNB-19 CNS) was 24.4 µM and the GI50 (SNB-75 CNS) was 13.4 µM. The TGI (SNB-75 CNS) was 26.5 µM, the GI50 (SR leukemia) was 2.86 µM and the TGI (SR leukemia) was 20 µM. It also gave a GI50 (SW-620 colon) of 1.96 µM, a TGI (SW-620 colon) of 3.99 µM and a GI50 (T-47D breast) of 4.71 µM. It also gave a TGI (T-47D breast) of 23.5 µM, a GI50 (TK-10 renal) of 1.84 µM and a TGI (TK-10 renal) of 4.33 µM. The GI50 (U251 CNS) was 2.85 µM, the TGI (U251 CNS) was 11.2 µM and the GI50 (UACC-257 melanoma) was 3.33 µM. The TGI (UACC-257 melanoma) was 14.1 µM, the GI50 (UACC-62 melanoma) was 6.86 µM and the TGI (UACC-62 melanoma) was 21.3 µM. For the same compound, the GI50 (UO-31 renal) was 1.69 µM and the TGI (UO-31 renal) was 4.04 µM.
